Test results from US20250205158A1, “BIODEGRADABLE LIPIDS AND FORMULATIONS FOR DELIVERY OF MRNA” (Massachusetts Institute of Technology, priority 2023, published 2025).

What was measured:
[1] = LNP characterization (diameter, PDI, % EE); assay type: physicochemical; conditions: LNP formulated with the named lipid
Protocol: Representative LNP Characterization Data. The diameter, polydispersity index (PDI), and % EE were characterized for various LNPs.
LNP characterization. Concentration of mRNA was determined using a Quant-IT Ribogreen assay. LNPs were diluted in either native TE buffer (ThermoFisher) or denaturing TE buffer+0.5% Triton-X 100 (Millipore-Sigma) to measure the “free” and total mRNA, respectively. 100 μL of these unknowns were added to a black 96-well plate. Separately, standard curves ranging from 2 ng/μL-0 ng/μL were prepared in each of these buffers and 100 μL were added to the same 96-well plate. Finally, Quant-IT Ribogreen reagent (ThermoFisher) was diluted 1:200 in TE buffer and 100 μL of this solution was added to each of the wells. The well plate was then mixed at 400 rpm with a plate shaker for 5 mins. and the fluorescence was read with an excitation/emission of 485/535. LNPs were measured in triplicate and standards were measured in duplicate. RNA concentration in each of the unknown wells was calculated by fitting the standard curves with a linear trendline. Encapsulation efficiency (% EE) was calculated according to: […]
Dynamic light scattering and zeta potential measurements were performed using a Malvern Zetasizer system. The reported diameter and PDI were obtained from the cumulants fit of the autocorrelation function. Zeta potential measurements were performed in 0.1×PBS, pH 7.4 and calculated using the Smoluchowski approximation.

[2] = test system: mice; assay: tdTomato mRNA LNP expression in muscle and local draining lymph node (flow cytometry, IHC)
[3] = test system: PCSK9 gene; assay: CRISPR-Cas9 gene editing with mRNA LNPs; assay type: in vivo; conditions: dose of 3 mg/kg
Protocol: The ability of AMG1541 mRNA LNPs to induce CRISPR-Cas9 gene editing was also evaluated (FIGS. 9A-9D).

[4] = test system: Lentiviruses pseudotyped with the B.1.617.2 spike protein; assay type: cell-based; conditions: 293T-ACE2 cells, GFP reporter
[5] = in vivo; conditions: C57BL/6, mouse, im
[6] = test system: mice; assay: hEPO mRNA LNP protein production after intravenous administration; assay type: in vivo
[7] = 31P NMR membrane fusion study; assay type: physicochemical; conditions: acidic pH
Protocol: Structural features of AMG lipids that facilitate mRNA delivery. The factors contributing to lipid potency were evaluated. The ionization properties of AMG1541 LNPs were investigated using a previously established 6-(p-toluidino)-2-napthalenesulfonic acid (TNS) assay.^22 The pKa of AMG LNPs showing higher in vivo mRNA transfection than SM-102 ranged between pH 6.4-6.7. […] In addition to endosomal buffering, it is hypothesized that the protonated ionizable lipids within the acidic endosome bind with anionic phospholipids within the endosomal membrane, destabilizing the membrane's bilayer and promoting endosomal pore formation.^17,52 The membrane fusion properties of the ionizable lipids was evaluated via ^31P NMR. When bilayer forming DPPS vesicles were mixed with equimolar AMG lipid under acidic conditions, a bilayer to hexagonal phase transition was observed, indicating their membrane-destabilizing nature (FIG. 15D).

[8] = muscle, female BALB/cJ mice, IM
[9] = intravenous delivery of mRNA to the liver (FIG. 18), EPO in blood 6 hours

## CCCCCC/C=C\CCCC(=O)OCC(O)CN1CCN(CC(O)COC(=O)CCC/C=C\CCCCCC)CCN(CC(O)COC(=O)CCC/C=C\CCCCCC)CCN(CC(O)COC(=O)CCC/C=C\CCCCCC)CCN(CC(O)COC(=O)CCC/C=C\CCCCCC)CCN(CC(O)COC(=O)CCC/C=C\CCCCCC)CC1 (stereo not shown) [AMG1541]
[1]; Ribogreen assay
  EE %: 86.0935%
[1]; dynamic light scattering
  Diameter (nm): 85 nm
  PDI: 0.107
[2]; after IM administration
  expression in muscle fibers (IHC): tdTomato was expressed in the muscle fibers
[2]; female BALB/cJ mice, IM
  protein expression in the LDLN relative to SM-102: significantly higher protein expression in APCs
[2]; [8]
  fold higher tdTomato expression in DCs than SM-102: 3.8 fold
  fold higher tdTomato expression in monocytes than SM-102: 22 fold
[3]
  serum PCSK9 levels: significant reduction in serum PCSK9 levels
[4]
  fold higher infection inhibition IC50 than AMG1041: approximately 2 fold
[5]
  half-life: 3 h
[6]; administered intravenously
  hEPO expression profile in the liver, comparable to MD-1: excellent hEPO expression profile
[6]; dose range of 0.25-1 mg/kg
  hEPO protein expression in liver: consistent levels of protein expression
[6]; hEPO mRNA, 1 mg/kg dose
  fold higher protein expression than Lipid 5: 3-4 fold
[6]; higher doses beyond 2 mg/kg
  hEPO protein expression: reduced protein expression
[6]; intravenous delivery of mRNA to the liver (FIG. 18)
  expression relative to cKK-E12: comparable expression to cKK-E12
[6]; [9]
  fold higher expression than LP-01: ~5 fold
  fold higher expression than Lipid 5: ~3 fold
[6]; repeat dosing over 3 weeks at 0.05-1 mg/kg
  hEPO production in liver, repeat dosing: consistent hEPO production
[7]
  31P NMR phase behaviour: bilayer membrane to hexagonal HII transformation
